Patent publication US10681909B2, “Herbicidal triazoles” (FMC Corporation, priority 2014, dated 2020)

Tests used:
[1] = tested on: pigweed; test: Test A postemergence; format: in vivo, Amaranthus retroflexus; conditions: Amaranthus retroflexus, post-emergence, 240 h, 0 to 100 scale (0 no effect, 100 complete control), approx. 10 d, read-out: Plant response rating, Pigweed; for pest or weed control at 125 g/ha: 125 g ai/ha; for pest or weed control at 500 g/ha: 500 g ai/ha
In short: (§1)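 Test chemicals in a non-phytotoxic solvent with surfactant were applied as a directed soil spray preemergence to seeds sown in loam/sand. Postemergence sprays went to plants 2–10 cm tall at the one- to two-leaf stage. A dash means no result.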

[2] = tested on: sedge, umbrella; test: Test B flooded paddy test; format: in vivo, Cyperus difformis; conditions: Cyperus difformis, 360 h, 125 g ai/ha, applied to paddy water at 2-leaf stage, visual rating after 13 to 15 d, scale 0 (no effect) to 100 (complete control), read-out: Plant response rating, Sedge, Umbrella, Flood
In short: (§2)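 Pots were flooded to 3 cm above the soil at treatment, and compounds were applied directly into the paddy water. That depth was held throughout. After 13 to 15 d in a greenhouse, plants were rated visually against untreated controls.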

[3] = tested on: barnyardgrass; test: Test A preemergence; format: in vivo, Echinochloa crus-galli; conditions: Echinochloa crus-galli, pre-emergence, 240 h, 0 to 100 scale (0 no effect, 100 complete control), read-out: Plant response rating, Barnyardgrass; for pest or weed control at 125 g/ha: 125 g ai/ha; for pest or weed control at 500 g/ha: 500 g ai/ha, approx. 10 d
In short: as §1

[4] = tested on: wheat; test: Test A postemergence; format: in vivo, Triticum aestivum; conditions: Triticum aestivum, post-emergence, 240 h, 0 to 100 scale (0 no effect, 100 complete control), approx. 10 d, read-out: Plant response rating, Wheat; for plant injury at 125 g/ha: 125 g ai/ha; for plant injury at 500 g/ha: 500 g ai/ha
In short: as §1

[5] = tested on: barnyardgrass; test: Test B flooded paddy test; format: in vivo, Echinochloa crus-galli; conditions: Echinochloa crus-galli, 360 h, 125 g ai/ha, applied to paddy water at 2-leaf stage, visual rating after 13 to 15 d, scale 0 (no effect) to 100 (complete control), read-out: Plant response rating, Barnyardgrass, Flood
In short: as §2

[6] = tested on: foxtail, giant; test: Test A preemergence; format: in vivo, Setaria faberii; conditions: Setaria faberi, pre-emergence, 240 h, 0 to 100 scale (0 no effect, 100 complete control), read-out: Plant response rating, Foxtail, Giant; for pest or weed control at 125 g/ha: 125 g ai/ha; for pest or weed control at 500 g/ha: 500 g ai/ha, approx. 10 d
In short: as §1

[7] = tested on: crabgrass, large; test: Test C postemergence; format: in vivo, Digitaria sanguinalis
Description: (§3) Seeds of plant species selected from blackgrass (Alopecurus myosuroides), ryegrass, Italian (Italian ryegrass, Lolium multiflorum), wheat (winter wheat, Triticum aestivum), galium (catchweed bedstraw, Galium aparine), corn (Zea mays), crabgrass, large (large crabgrass, Digitaria sanguinalis), foxtail, giant, (giant foxtail, Setaria faberii), johnsongrass (Sorghum halepense), lambsquarters (Chenopodium album), morningglory (Ipomoea coccinea), nutsedge, yellow (yellow nutsedge, Cyperus esculentus), pigweed (Amaranthus retroflexus), ragweed (common ragweed, Ambrosia elatior), soybean (Glycine max), barnyardgrass (Echinochloa crus-galli), oilseed rape (Brassica napus), waterhemp (common waterhemp, Amaranthus rudis), and velvetleaf (Abutilon theophrasti) were planted into a blend of loam soil and sand and treated preemergence with test chemicals formulated in a non-phytotoxic solvent mixture which included a surfactant. At the same time, plants selected from these crop and weed species and also chickweed (common chickweed, Stellaria media), oat, wild (wild oat, Avena fatua), and kochia (Kochia scoparia), were planted in pots containing Sunshine Redi-Earth® planting medium comprising spaghnum peat moss, vermiculite, starter nutrients and dolomitic limestone and treated with postemergence applications of test chemicals formulated in the same manner. Plants ranged in height from 2 to 18 cm (1- to 4-leaf stage) for postemergence treatments. […] A dash (-) response means no test result.

[8] = tested on: soybean; test: Test C postemergence; format: in vivo, Glycine max
Description: as §3

[9] = tested on: waterhemp; test: Test C postemergence; format: in vivo, Amaranthus rudis
Description: as §3

[10] = tested on: corn; test: Test C postemergence; format: in vivo, Zea mays
Description: as §3

[11] = tested on: lambsquarters; test: Test C postemergence; format: in vivo, Chenopodium album
Description: as §3

[12] = tested on: morningglory; test: Test C postemergence; format: in vivo, Ipomoea coccinea
Description: as §3

[13] = tested on: barnyardgrass; test: Test C preemergence; format: in vivo, Echinochloa crus-galli; conditions: for Plant response rating (scale of 0 to 100 where 0 is no effect and 100 is complete control): Barnyardgrass, preemergence; for Barnyardgrass plant response rating (0 to 100): Preemergence, visual rating after 13 to 15 d
Description: as §3

[14] = tested on: galium; test: Test C postemergence; format: in vivo, Galium aparine
Description: as §3

CCn1nc(-c2ccc(F)cc2)nc1C(=O)c1ccnc(C(F)(F)F)c1 [Compound 19, [1-ethyl-3-(4-fluorophenyl)-1H-1,2,4-triazol-5-yl][2-(trifluoromethyl)-4-pyridinyl]methanone]
pest or weed control at 125 g/ha [1]: 0% | pest or weed control at 500 g/ha [1]: 30% | pest or weed control at 125 g/ha [2]: 0% | pest or weed control at 125 g/ha [3]: 0% | pest or weed control at 500 g/ha [3]: 0% | plant injury at 125 g/ha [4]: 0% | plant injury at 500 g/ha [4]: 0% | pest or weed control at 125 g/ha [5]: 0% | pest or weed control at 125 g/ha [6]: 0% | pest or weed control at 500 g/ha [6]: 50%

CCn1nc(-c2ccc(F)cc2)nc1C(O)c1ccnc(C(F)(F)F)c1 (stereo not drawn) [Compound 15, α-[1-Ethyl-3-(4-fluorophenyl)-1H-1,2,4-triazol-5-yl]-2-(trifluoromethyl)-4-pyridinemethanol]
pest or weed control at 125 g/ha [1]: 10% | pest or weed control at 500 g/ha [1]: 70% | pest or weed control at 125 g/ha [2]: 0% | pest or weed control at 125 g/ha [3]: 0% | pest or weed control at 500 g/ha [3]: 0% | plant injury at 125 g/ha [4]: 0% | plant injury at 500 g/ha [4]: 0% | pest or weed control at 125 g/ha [5]: 0% | pest or weed control at 125 g/ha [6]: 0% | pest or weed control at 500 g/ha [6]: 20%

Cn1nc(-c2ccc(F)cc2)nc1Oc1cccc(C(F)(F)F)c1 [Compound 5, 3-(4-fluorophenyl)-1-methyl-5-[3-(trifluoromethyl)phenoxy]-1H-1,2,4-triazole]
pest or weed control at 125 g/ha [1]: 90% | pest or weed control at 500 g/ha [1]: 100% | pest or weed control at 125 g/ha [3]: 0% | pest or weed control at 500 g/ha [3]: 20% | plant injury at 125 g/ha [4]: 0% | plant injury at 500 g/ha [4]: 10% | pest or weed control at 125 g/ha [6]: 60% | pest or weed control at 500 g/ha [6]: 90%

CCCn1nc(-c2ccc(F)cc2)nc1Cc1ccnc(C(F)(F)F)c1 [Compound 17, 4-[[3-(4-fluorophenyl)-1-propyl-1H-1,2,4-triazol-5-yl]methyl]-2-(trifluoromethyl)pyridine]
pest or weed control at 125 g/ha [1]: 100% | pest or weed control at 500 g/ha [1]: 100% | pest or weed control at 125 g/ha [2]: 80% | pest or weed control at 125 g/ha [3]: 50% | pest or weed control at 500 g/ha [3]: 100% | plant injury at 125 g/ha [4]: 60% | plant injury at 500 g/ha [4]: 80% | pest or weed control at 125 g/ha [5]: 10% | pest or weed control at 125 g/ha [6]: 100% | pest or weed control at 500 g/ha [6]: 100%

Cn1nc(-c2ccc(F)cc2)nc1C(O)c1ccnc(C(F)(F)F)c1 (stereo not drawn) [Compound 14, α-[3-(4-fluorophenyl)-1-methyl-1H-1,2,4-triazol-5-yl]-2-(trifluoromethyl)-4-pyridinemethanol]
pest or weed control at 125 g/ha [1]: 60% | pest or weed control at 500 g/ha [1]: 90% | pest or weed control at 125 g/ha [2]: 0% | pest or weed control at 125 g/ha [3]: 0% | pest or weed control at 500 g/ha [3]: 10% | plant injury at 125 g/ha [4]: 10% | plant injury at 500 g/ha [4]: 30% | pest or weed control at 125 g/ha [5]: 0% | pest or weed control at 125 g/ha [6]: 30% | pest or weed control at 500 g/ha [6]: 90%

CCOc1nc(-c2ccc(C(F)(F)F)cc2)nn1Cc1ccnc(C(F)(F)F)c1 [Compound 35, 4-[[5-ethoxy-3-[4-(trifluoromethyl)phenyl]-1H-1,2,4-triazole-1-yl]methyl]-2-(trifluoromethyl)pyridine]
Plant response rating (scale of 0 to 100 where 0 is no effect and 100 is complete control) ([7]; 31 g ai/ha): 35 | Plant response rating (scale of 0 to 100 where 0 is no effect and 100 is complete control) ([7]; 62 g ai/ha): 60 | Plant response rating (scale of 0 to 100 where 0 is no effect and 100 is complete control) ([7]; 125 g ai/ha): 70 | Plant response rating (scale of 0 to 100 where 0 is no effect and 100 is complete control) ([7]; 250 g ai/ha): 80 | pest or weed control at 31 g/ha ([1]; 31 g ai/ha): 100% | pest or weed control at 125 g/ha [1]: 100% | Plant response rating (scale of 0 to 100 where 0 is no effect and 100 is complete control) ([8]; 31 g ai/ha): 55 | Plant response rating (scale of 0 to 100 where 0 is no effect and 100 is complete control) ([8]; 62 g ai/ha): 65 | Plant response rating (scale of 0 to 100 where 0 is no effect and 100 is complete control) ([8]; 125 g ai/ha): 65 | Plant response rating (scale of 0 to 100 where 0 is no effect and 100 is complete control) ([8]; 250 g ai/ha): 70 | pest or weed control at 31 g/ha ([3]; 31 g ai/ha): 80% | pest or weed control at 125 g/ha [3]: 100% | Plant response rating (scale of 0 to 100 where 0 is no effect and 100 is complete control) ([9]; 31 g ai/ha): 98 | Plant response rating (scale of 0 to 100 where 0 is no effect and 100 is complete control) ([9]; 62 g ai/ha): 98 | Plant response rating (scale of 0 to 100 where 0 is no effect and 100 is complete control) ([9]; 125 g ai/ha): 95 | Plant response rating (scale of 0 to 100 where 0 is no effect and 100 is complete control) ([9]; 250 g ai/ha): 98 | Plant response rating (scale of 0 to 100 where 0 is no effect and 100 is complete control) ([10]; 31 g ai/ha): 25 | Plant response rating (scale of 0 to 100 where 0 is no effect and 100 is complete control) ([10]; 62 g ai/ha): 20 | Plant response rating (scale of 0 to 100 where 0 is no effect and 100 is complete control) ([10]; 125 g ai/ha): 25 | Plant response rating (scale of 0 to 100 where 0 is no effect and 100 is complete control) ([10]; 250 g ai/ha): 50 | Plant response rating (scale of 0 to 100 where 0 is no effect and 100 is complete control) ([11]; 31 g ai/ha): 98 | Plant response rating (scale of 0 to 100 where 0 is no effect and 100 is complete control) ([11]; 62 g ai/ha): 95 | Plant response rating (scale of 0 to 100 where 0 is no effect and 100 is complete control) ([11]; 125 g ai/ha): 98 | Plant response rating (scale of 0 to 100 where 0 is no effect and 100 is complete control) ([11]; 250 g ai/ha): 100 | plant injury at 31 g/ha ([4]; 31 g ai/ha): 40% | plant injury at 125 g/ha [4]: 70% | Plant response rating (scale of 0 to 100 where 0 is no effect and 100 is complete control) ([12]; 31 g ai/ha): 70 | Plant response rating (scale of 0 to 100 where 0 is no effect and 100 is complete control) ([12]; 62 g ai/ha): 95 | Plant response rating (scale of 0 to 100 where 0 is no effect and 100 is complete control) ([12]; 125 g ai/ha): 85 | Plant response rating (scale of 0 to 100 where 0 is no effect and 100 is complete control) ([12]; 250 g ai/ha): 95 | Plant response rating (scale of 0 to 100 where 0 is no effect and 100 is complete control) ([13]; 125 g ai/ha): 98 | Plant response rating (scale of 0 to 100 where 0 is no effect and 100 is complete control) ([13]; 250 g ai/ha): 100 | Barnyardgrass plant response rating (0 to 100) ([13]; 31 g ai/ha): 85 | Barnyardgrass plant response rating (0 to 100) ([13]; 62 g ai/ha): 90 | pest or weed control at 31 g/ha ([6]; 31 g ai/ha): 100% | pest or weed control at 125 g/ha [6]: 100% | Plant response rating (scale of 0 to 100 where 0 is no effect and 100 is complete control) ([14]; 31 g ai/ha): 80 | Plant response rating (scale of 0 to 100 where 0 is no effect and 100 is complete control) ([14]; 62 g ai/ha): 80 | Plant response rating (scale of 0 to 100 where 0 is no effect and 100 is complete control) ([14]; 125 g ai/ha): 90 | Plant response rating (scale of 0 to 100 where 0 is no effect and 100 is complete control) ([14]; 250 g ai/ha): 90

CS(=O)(=O)c1nc(-c2ccc(F)cc2)nn1Cc1ccnc(C(F)(F)F)c1 [Compound 29, 4-[[3-(4-fluorophenyl)-5-(methylsulfonyl)-1H-1,2,4-triazole-1-yl]methyl]-2-(trifluoromethyl)pyridine]
pest or weed control at 125 g/ha [1]: 0% | pest or weed control at 500 g/ha [1]: 0% | pest or weed control at 125 g/ha [2]: 0% | pest or weed control at 125 g/ha [3]: 0% | pest or weed control at 500 g/ha [3]: 0% | plant injury at 125 g/ha [4]: 0% | plant injury at 500 g/ha [4]: 0% | pest or weed control at 125 g/ha [5]: 0% | pest or weed control at 125 g/ha [6]: 0% | pest or weed control at 500 g/ha [6]: 0%
